Earlier results on 1 compound are cited in patent publication US11406678B2, “Simmondsin formulation” (priority 2016, dated 2022).

The conditions of the series: rats, 25 mg or 50 mg simmondsin per kg body weight.

Consider `CO[C@H]1[C@@H](OC)C[C@@H](O[C@@H]2O[C@H](CO)[C@@H](O)[C@H](O)[C@H]2O)/C(=C\C#N)[C@@H]1O` [simmondsin], for which the weight loss result is recorded as “no effect on the weight loss”.
